How the values were obtained:
primary human monocytes = experiment: Lipid mediator (LM) formation in primary human monocytes; assay type: cell-based; details: 10 µM; A23187 2.5 µM, 30 min
Excerpt: Monocytes and polymorphonuclear leukocytes (PMNL) were freshly isolated from human blood. Human blood and leukocyte concentrates were provided by the Institute for Transfusion Medicine of the University Hospital Jena (Thuringia, Germany). The protocols for experiments with human blood and blood cells were approved by the ethical commission of the Friedrich Schiller University of Jena. Following blood density centrifugation and separation of cell populations, peripheral blood mononuclear cells (PBMC) were left to adhere for 1 h to cell culture flasks (monocyte-enriched PBMC). Non-adherent cells were washed off from the adherent monocytes, before pre-incubating monocytes (5 × 10^6 cells/mL) with the test compounds for 10 min at 37 °C. LM formation was elicited with A23187 (2.5 µM) and CaCl2 (1 mM) over 30 min. The reaction was stopped with 1 mL of ice-cold methanol containing 10 µL of deuterium-labelled internal LM standards (200 nM d8-5S-HETE, d4-LTB4, d5-LXA4, d5-RvD2, d4-PGE2 and 10 µM d8-AA). LMs were extracted using Sep-Pak C18 35 cc Vac Cartridges (Waters, Milford, MA, USA) and analysed by UPLC-MS/MS as described by Pein et al..
The ability to modulate LM formation was screened in primary human monocytes expressing the enzymes required for PGE2, LTB4, and 12-HETE production (Figure 2A). Cells were pre-treated with the test compounds BZTst1–6 (10 µM) or the reference COX inhibitor diclofenac (1 µM) for 10 min prior to stimulation with the calcium ionophore A23187 (2.5 µM) for 30 min.

ORAC assay = assay type: biochemical; details: Trolox equivalents; mean ± SD
Description: The ORAC assay was performed based on the previously modified Hong procedure. The sodium salt of fluorescein (85 nM) was used as a target for free radical attack with 2,2′-azobis(2-amidinopropane) dichloride (AAPH) as a peroxyl radical generator in the final assay mixture (total volume of 0.2 mL). The test involves a calibration curve of Trolox (standard control) with different concentrations (40 to 240 μM). The compounds tested were first dissolved in DMSO:MeOH and then diluted in phosphate buffer solution pH 7.4. Fluorescence measurements were performed at 37 °C and recorded at 5-min intervals up to 30 min after the addition of AAPH. ORAC values were calculated as the difference in areas under the fluorescein quenching curves between the blank and the sample and were expressed as µmol Trolox equivalents (TE) per gram of dried sample.

skin HaCat keratinocytes = experiment: Cell growth inhibition assay, HaCat; assay type: cell-based, human; details: Homo sapiens, HaCaT; 24 h incubation; mean ± SD
Description: Cell growth inhibition analyses were performed on human melanoma Colo38 cells and skin HaCat keratinocytes. Human melanoma Colo38 cells were kindly given by Dr. Patrizio Giacomini (Laboratory of Immunology, Regina Elena Institute, Rome, Italy). HaCat cells were obtained from Istituto Zooprofilattico Sperimentale della Lombardia e dell’Emilia-Romagna, Brescia, Italy. Cells were seeded at 40,000 cells/mL and 25,000 cells/mL, respectively. Colo38 cells were maintained in RPMI 1640, supplemented with 10% foetal bovine serum (FBS), penicillin (100 Units/mL), and streptomycin (100 µg/mL). HaCat cells were maintained in DMEM, supplemented with 10% fatal bovine serum (FBS), penicillin (100 Units/mL), streptomycin (100 µg/mL) and glutamine (2 mM); the incubation was performed at 37 °C in a 5% CO2 atmosphere. Compounds were dissolved in DMSO to obtain 50 mM stock solutions and diluted before cell treatment in MeOH. The tested compounds were added at serial dilutions to the cell cultures (from 0.1 to 100 µM) and incubated for 24 h further. Cells were then harvested, suspended in physiological solution, and counted with a Z2 Coulter Counter (Coulter Electronics, Hialeah, FL, USA). The number of cells/mL and the IC50 values were determined when untreated cells were in the log phase of cell growth. Samples of vehicles and untreated cells were included in each plate. Cisplatin was used as positive control for the HaCat cells, while N1-(4-arylidene)-1H-(2-OH-4-N(Et)2-phenyl)-[d]imidazole-2-carbohydrazide was used as positive control for the Colo38 cell line.

[1] = Photostability of O/W emulsions under solar simulator; assay type: physicochemical; details: for Photostability (classification, threshold 80%): O/W emulsion, solar irradiation; for %UVAPfeff.: residual UVAPF after solar irradiation; for %UVAPfeff. / %SPFeff.: O/W emulsion on PMMA; for %SPFeff.: residual in vitro SPF after solar irradiation
Description: Oil-in-water (O/W) emulsions containing individual filters were spread on PMMA sheet and irradiated with a solar simulator by applying different doses of UVA equivalent to an erythema effective radiant exposure of 100 J/m^2. Photostability was assessed by analysing the spectral transmittance, before and after irradiation, of the sunscreen thin film, measured before and after exposure from 290 to 400 nm. The residual percentages of SPF in vitro (%SPFeff.) and UVAPF (%UVAPFeff.) were calculated according to Equations (6) and (7), respectively. When the %SPFeff. and %UVAPFeff. are greater than or equal to 80, according to current regulations, a filter can be considered photostable [37].
To evaluate the effectiveness and safety profile of a sunscreen formulation, it is necessary to provide data on its photostability. Photodegradation data can be obtained by recording the pre- and post-irradiation transmittance spectra of PMMA plates with finger-coat formulations exposed to a dose of UVA capable of causing erythema. This method, established by Garoli et al., is used to determine photostability. The sun protection layer’s transmission in the range of 290–400 nm is recorded before and after exposure to sunlight, following the protocol.
The residual percentages of SPF in vitro (%SPFeff.) and UVAPf (%UVAPfeff.) were calculated using Equations (6) and (7) and are listed in Table 4. A filter can be classified as photostable if the %SPFeff. is greater than or equal to 80, according to regulatory standards. %SPFeff. = in vitro SPFafter/in vitro SPFbefore × 100(6) %UVAPfeff. = UVAPfafter/UVAPfbefore × 100(7) where SPFafter and SPFbefore are the SPF values calculated from the software after and before solar irradiation, and UVAPfafter and UVAPfbefore are the UVAPf values calculated from the software after and before solar irradiation.

SMILES: C(=C\c1nc2ccccc2s1)/c1ccccc1 [BZTst1, (E)-2-styrylbenzo[d]thiazole]
- 12-HETE formation (primary human monocytes): weak but significant inhibition
- ORAC (ORAC assay): <LOQ ^b
- IC50 (skin HaCat keratinocytes): > 100 µM
- Photostability (classification, threshold 80%) [1]: cannot be considered photostable
- %UVAPfeff. [1]: 54.38%
- %SPFeff. [1]: 99.14%

SMILES: Oc1ccc(/C=C/c2nc3ccccc3s2)cc1 [BZTst2, (E)-4-(2-(benzo[d]thiazol-2-yl)vinyl)phenol]
- ORAC (ORAC assay): 11,614.64 ± 1184.06 µmolTE/g
- IC50 (skin HaCat keratinocytes): 85.8 ± 17.9 µM
- %UVAPfeff. [1]: 95.96%
- %SPFeff. [1]: 104.43%

SMILES: COc1ccc(/C=C/c2nc3ccccc3s2)cc1 [BZTst3, (E)-2-(4-methoxystyryl)benzo[d]thiazole]
- ORAC (ORAC assay): 1077.84 ± 98.52 µmolTE/g
- melting point: 144 to 148 °C
- IC50 (skin HaCat keratinocytes): > 100 µM
- %UVAPfeff. [1]: 152.12%
- %SPFeff. [1]: 103.21%

SMILES: Oc1ccc(/C=C/c2nc3ccccc3s2)cc1O [BZTst4, (E)-4-(2-(benzo[d]thiazol-2-yl)vinyl)benzene-1,2-diol]
- 12-HETE formation (primary human monocytes): highly significant inhibition
- ORAC (ORAC assay): <LOQ ^b
- IC50 (skin HaCat keratinocytes): 80.2 ± 24.7 µM
- %UVAPfeff. [1]: 101.57%
- %SPFeff. [1]: 104.02%

SMILES: COc1ccc(/C=C/c2nc3ccccc3s2)cc1O [BZTst5, (E)-5-(2-(benzo[d]thiazol-2-yl)vinyl)-2-methoxyphenol]
- ORAC (ORAC assay): <LOQ ^b
- IC50 (skin HaCat keratinocytes): 86 ± 40.7 µM
- %UVAPfeff. [1]: 106.30%
- %SPFeff. [1]: 100.00%

SMILES: COc1cc(/C=C/c2nc3ccccc3s2)ccc1O [BZTst6, (E)-4-(2-(benzo[d]thiazol-2-yl)vinyl)-2-methoxyphenol]
- ORAC (ORAC assay): 19,027.54 ± 46.67 µmolTE/g
- IC50 (skin HaCat keratinocytes): > 100 µM
- Photostability (classification, threshold 80%) [1]: photostable
- %UVAPfeff. [1]: 80.75%
- %SPFeff. [1]: 93.59%

Reference: PMC11504387, “Synthesis and Biological Activity Assessment of 2-Styrylbenzothiazoles as Potential Multifunctional Therapeutic Agents” (Antioxidants, 2024)
